Measured values as given in US10662229B2, “Spider venom peptides and methods of use for modulating sodium channels” (priority 2016, dated 2020).

Columns and labels:
hNav1.9 = molecular target: T1, hNav1.9 (Homo sapiens, UniProt Q9UI33); experiment: Automated patch clamp (PatchXpress), hNav1.9; type: cell-based
T1 construct: expressed in transfected cells; host or cells: HEK293
Method: Cells were triturated until a single cell suspension was achieved. […] Cell aliquots of 5 mL (1×10^6 cells) were placed in a 15 mL centrifuge tube and spun at 100×g for 2 minutes.

[1] = test system: burns-induced pain in mice; experiment: Burns-induced pain; type: in vivo; conditions: intraplantar, 3 days after burns injury
Method: (§1) For behavioural assessment adult male C57BL/6J mice aged 6-8 weeks were used. Animals were housed in groups of 3 or 4 per cage, under 12 h light-dark cycles and had standard rodent chow and water ad libitum.
To induce a mild burn injury, the plantar skin of the left hind paw of mice was applied with firm pressure to a Peltier plate (Hot/Cold Plate, Ugo Basile, Comerio, Italy) set at 52.5° C. for 25 s under light isoflurane (3%) anaesthesia. Behavioural assessment (mechanical and thermal thresholds) was performed 3 days after the burns injury.
Mechanical allodynia was assessed using an electronic von Frey apparatus (MouseMet Electronic von Frey, TopCat Metrology Ltd, United Kingdom). […] The force that elicited paw withdrawal was calculated using the MouseMet Software. The paw withdrawal force (PWF) was determined from the average of three tests, separated by at least 2 min.
Mice were habituated in individual mouse runs for at least 5 min prior to testing. […] Removal of the paw and/or the probe by the investigator terminates heating, and triggers display of the withdrawal temperature on the readout, without the need for the investigator to manually stop the heating or record the temperature, until the reset button is pressed. The temperature that elicited a paw withdrawal, known as the paw withdrawal temperature (PWT), was determined by a single test.

hNav1.8 = molecular target: T2, hNav1.8 (Homo sapiens, UniProt Q9Y5Y9); experiment: FLIPR membrane potential assay, hNav1.8; type: cell-based
T2 construct: host or cells: HEK293
Outline: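 Cells plated 48 h before assay, then dye-loaded (red membrane potential dye, 1× in PSS, 30 min, 37° C), then agonist added and membrane potential tracked on FLIPR^TETRA for 300 s. HEK293 stable lines expressing each hNav subtype.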

[2] = test system: ciguatoxin-induced spontaneous pain in mice; experiment: Ciguatoxin-induced spontaneous pain; type: in vivo; conditions: intraplantar, co-injected with ciguatoxin
Method: as §1
Ciguatoxin (P-CTX-1; isolated in accordance with the protocol of Hamilton et al. (2002) Toxicon, 40(6): 685-693) was diluted in phosphate-buffered saline/0.1% BSA (10 nM) and administered by shallow subcutaneous (intraplantar) injection to the left hind paw of mice in a volume of 40 μL under light isoflurane (3%) anesthesia. Mice were then placed individually into polyvinyl boxes (10×10×10 cm), and spontaneous pain behavior (licks and flinches) was counted by an investigator unaware of the treatments received from video recordings for 10 min post-injection.

T1 sequence (Q9UI33 whole entry): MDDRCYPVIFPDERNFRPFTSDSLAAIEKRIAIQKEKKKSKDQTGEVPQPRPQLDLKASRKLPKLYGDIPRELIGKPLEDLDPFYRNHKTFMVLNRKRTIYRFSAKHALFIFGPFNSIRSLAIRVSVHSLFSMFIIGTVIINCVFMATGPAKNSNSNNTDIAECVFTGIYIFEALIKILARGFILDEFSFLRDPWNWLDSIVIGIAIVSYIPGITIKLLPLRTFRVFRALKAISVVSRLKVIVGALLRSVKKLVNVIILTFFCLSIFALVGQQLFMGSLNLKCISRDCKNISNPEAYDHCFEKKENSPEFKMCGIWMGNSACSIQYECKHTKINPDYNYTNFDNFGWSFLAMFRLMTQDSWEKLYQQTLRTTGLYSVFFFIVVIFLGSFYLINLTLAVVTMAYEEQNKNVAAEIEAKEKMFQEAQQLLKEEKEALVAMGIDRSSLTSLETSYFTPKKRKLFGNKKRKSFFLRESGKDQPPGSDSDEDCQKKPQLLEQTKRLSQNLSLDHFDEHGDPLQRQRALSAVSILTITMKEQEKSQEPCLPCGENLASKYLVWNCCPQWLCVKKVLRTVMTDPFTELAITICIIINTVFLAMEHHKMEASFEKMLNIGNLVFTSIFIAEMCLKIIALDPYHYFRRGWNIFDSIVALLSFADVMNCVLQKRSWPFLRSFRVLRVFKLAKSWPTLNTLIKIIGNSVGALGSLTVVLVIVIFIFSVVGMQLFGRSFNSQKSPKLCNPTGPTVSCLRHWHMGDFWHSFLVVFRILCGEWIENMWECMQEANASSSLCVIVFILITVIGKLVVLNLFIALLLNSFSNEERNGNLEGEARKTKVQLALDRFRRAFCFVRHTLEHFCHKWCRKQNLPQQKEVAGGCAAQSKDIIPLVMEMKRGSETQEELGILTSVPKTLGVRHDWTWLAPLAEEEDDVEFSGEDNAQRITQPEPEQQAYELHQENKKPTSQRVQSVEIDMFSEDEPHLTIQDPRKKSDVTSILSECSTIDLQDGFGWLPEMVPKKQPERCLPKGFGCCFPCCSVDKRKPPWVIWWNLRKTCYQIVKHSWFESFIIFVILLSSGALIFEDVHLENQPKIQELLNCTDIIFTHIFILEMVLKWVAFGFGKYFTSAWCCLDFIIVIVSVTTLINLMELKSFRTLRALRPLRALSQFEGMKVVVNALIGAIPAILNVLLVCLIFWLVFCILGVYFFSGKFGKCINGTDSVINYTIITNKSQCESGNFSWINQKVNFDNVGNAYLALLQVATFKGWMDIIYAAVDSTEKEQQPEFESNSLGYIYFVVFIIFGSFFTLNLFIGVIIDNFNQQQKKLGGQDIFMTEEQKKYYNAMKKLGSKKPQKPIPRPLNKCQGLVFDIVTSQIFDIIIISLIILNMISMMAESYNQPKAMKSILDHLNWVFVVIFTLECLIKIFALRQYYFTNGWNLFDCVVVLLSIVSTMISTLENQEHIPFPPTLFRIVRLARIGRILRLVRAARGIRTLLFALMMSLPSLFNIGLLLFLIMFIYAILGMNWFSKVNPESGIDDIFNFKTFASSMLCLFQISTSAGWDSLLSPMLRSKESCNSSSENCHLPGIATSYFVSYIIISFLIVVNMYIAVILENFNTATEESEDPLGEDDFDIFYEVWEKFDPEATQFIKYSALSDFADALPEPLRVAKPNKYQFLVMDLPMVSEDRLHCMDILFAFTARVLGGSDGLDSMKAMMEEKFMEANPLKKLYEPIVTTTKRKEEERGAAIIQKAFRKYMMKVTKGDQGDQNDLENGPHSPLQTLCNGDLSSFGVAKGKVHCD
T2 sequence (Q9Y5Y9 whole entry): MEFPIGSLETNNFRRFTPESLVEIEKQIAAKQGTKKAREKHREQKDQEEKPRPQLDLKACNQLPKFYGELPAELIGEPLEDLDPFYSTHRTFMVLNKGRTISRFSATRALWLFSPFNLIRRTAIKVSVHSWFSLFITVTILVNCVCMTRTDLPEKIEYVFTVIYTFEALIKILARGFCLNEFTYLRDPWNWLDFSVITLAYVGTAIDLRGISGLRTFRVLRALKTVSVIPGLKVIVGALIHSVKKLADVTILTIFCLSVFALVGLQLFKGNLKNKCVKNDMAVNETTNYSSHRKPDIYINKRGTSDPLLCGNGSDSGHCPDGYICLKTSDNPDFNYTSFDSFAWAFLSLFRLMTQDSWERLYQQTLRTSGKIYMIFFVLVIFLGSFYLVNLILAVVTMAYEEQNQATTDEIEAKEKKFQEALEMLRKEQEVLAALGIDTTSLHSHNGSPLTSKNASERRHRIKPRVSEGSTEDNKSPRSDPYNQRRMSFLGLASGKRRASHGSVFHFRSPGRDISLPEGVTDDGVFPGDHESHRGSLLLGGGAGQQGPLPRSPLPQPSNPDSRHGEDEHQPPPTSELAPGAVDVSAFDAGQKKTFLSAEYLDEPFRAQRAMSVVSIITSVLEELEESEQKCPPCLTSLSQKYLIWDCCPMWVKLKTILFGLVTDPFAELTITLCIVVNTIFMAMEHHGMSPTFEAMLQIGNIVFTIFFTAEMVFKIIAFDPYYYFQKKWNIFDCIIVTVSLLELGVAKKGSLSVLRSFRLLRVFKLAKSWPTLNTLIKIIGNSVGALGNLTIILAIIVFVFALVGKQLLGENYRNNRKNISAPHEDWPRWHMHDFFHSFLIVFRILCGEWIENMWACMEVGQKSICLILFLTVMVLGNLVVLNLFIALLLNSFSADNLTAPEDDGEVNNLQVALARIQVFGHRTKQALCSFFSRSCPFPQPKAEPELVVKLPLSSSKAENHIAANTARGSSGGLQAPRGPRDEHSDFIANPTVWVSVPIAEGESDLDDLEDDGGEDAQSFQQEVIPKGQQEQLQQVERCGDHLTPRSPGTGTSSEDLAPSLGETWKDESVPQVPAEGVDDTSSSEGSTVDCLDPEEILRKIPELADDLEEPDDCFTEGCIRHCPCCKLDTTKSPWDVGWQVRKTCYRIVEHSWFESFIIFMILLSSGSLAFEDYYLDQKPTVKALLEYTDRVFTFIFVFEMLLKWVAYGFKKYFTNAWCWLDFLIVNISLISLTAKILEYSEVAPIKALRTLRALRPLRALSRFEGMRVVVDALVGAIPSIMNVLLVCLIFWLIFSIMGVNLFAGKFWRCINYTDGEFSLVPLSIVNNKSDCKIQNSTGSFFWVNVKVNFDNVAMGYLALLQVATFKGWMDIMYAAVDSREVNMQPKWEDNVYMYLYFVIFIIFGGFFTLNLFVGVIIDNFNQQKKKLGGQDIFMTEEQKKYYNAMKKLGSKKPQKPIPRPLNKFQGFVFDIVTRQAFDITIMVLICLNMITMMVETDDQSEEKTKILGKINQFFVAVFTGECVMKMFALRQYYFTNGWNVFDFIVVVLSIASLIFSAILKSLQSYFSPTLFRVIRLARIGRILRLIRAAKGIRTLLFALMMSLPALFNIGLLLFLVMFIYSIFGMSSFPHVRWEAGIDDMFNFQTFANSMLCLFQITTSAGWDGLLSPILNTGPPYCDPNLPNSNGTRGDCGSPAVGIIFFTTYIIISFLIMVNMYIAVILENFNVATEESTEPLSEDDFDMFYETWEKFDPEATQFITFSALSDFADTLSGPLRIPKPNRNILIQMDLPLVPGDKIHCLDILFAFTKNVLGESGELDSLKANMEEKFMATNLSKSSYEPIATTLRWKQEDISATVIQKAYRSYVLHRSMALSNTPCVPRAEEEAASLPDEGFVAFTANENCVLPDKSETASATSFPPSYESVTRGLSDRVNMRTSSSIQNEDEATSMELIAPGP

## CSCC[C@@H]1NC(=O)[C@H](Cc2ccc(O)cc2)NC(=O)[C@H](CCCNC(=N)N)NC(=O)[C@@H](NC(=O)[C@@H](N)CC(=O)O)CSSC[C@@H]2NC(=O)[C@@H]3CSSC[C@@H](C(=O)N[C@@H](C)C(=O)N[C@@H](Cc4c[nH]c5ccccc45)C(=O)N[C@@H](CC(=O)O)C(=O)N[C@@H](Cc4ccccc4)C(=O)N[C@H](C(=O)N[C@@H](Cc4ccccc4)C(=O)N[C@H](C(=O)O)[C@@H](C)O)[C@@H](C)O)NC(=O)[C@H](Cc4ccc(O)cc4)NC(=O)[C@H](CCCCN)NC(=O)[C@H](CCSC)NC(=O)[C@H](CCCCN)NC(=O)[C@H](CCCNC(=N)N)NC(=O)[C@H](CCCCN)NC(=O)[C@H](CSSC[C@H](NC(=O)[C@H](CC(=O)O)NC(=O)CNC(=O)[C@H](Cc4ccccc4)NC1=O)C(=O)N[C@@H](CCC(=O)O)C(=O)N[C@@H](CCCCN)C(=O)N[C@@H](CC(=O)O)C(=O)N[C@@H](CCC(=O)O)C(=O)N[C@@H](CC(=O)O)C(=O)N3)NC(=O)CNC(=O)[C@H](CC(C)C)NC(=O)[C@H](Cc1cnc[nH]1)NC(=O)[C@H](CCCCN)NC2=O [Pnc1a]
hNav1.9
  IC50: 2.34 µM
[1]
  mechanical threshold of the injured paw: no significant effect
  thermal threshold of the injured paw: significantly increased
hNav1.8
  IC50: 26.3 µM
[2]
  ciguatoxin-induced spontaneous pain behaviours: significantly reduced
